Laboratory results: patent US5407932A, “Quinolone derivatives and antibacterial agents containing the same” (Wakunaga Seiyaku Kabushiki Kaisha, priority 1989, dated 1995)
Converted amounts (≈) assume the structure as drawn.

Legend:
Assay in all cases: Minimum inhibitory concentration, standard method of the Japan Society of Chemotherapy
Assay type in all cases: cell-based
[1] = tested on: S. aureus 209 P (IFO 12732); conditions: Staphylococcus aureus, IFO12732
Protocol: (§1) With respect to certain representative compounds among the compounds [I] of the present invention, their minimum inhibitory concentrations (MIC; μg/ml) were measured in accordance with the standard method established by the Japan Society of Chemotherapy [CHEMOTHERAPY, 29(1), 76-79 (1981)]. The results are summarized in Table 1, in which the compound numbers are as shown in examples.

P. aeruginosa (IFO 3445) = conditions: Pseudomonas aeruginosa, IFO3445
Protocol: as §1

[2] = tested on: E. coli NIH JC-2 (IFO 12734); conditions: Escherichia coli, IFO12734
Protocol: as §1

Row | SMILES | MIC [1] [µg/mL] | MIC (P. aeruginosa (IFO 3445)) [µg/mL] | MIC [2] [µg/mL]
1 | CCNC1CCN(c2c(F)cc3c(=O)c(C(=O)O)cn(C4COC4)c3c2F)C1 (stereo not drawn) [Compound 45] | 1.56 (≈ 3.97 µM) | 3.13 (≈ 7.96 µM) | 0.39 (≈ 0.991 µM)
2 | CN[C@@H]1CN(c2c(F)cc3c(=O)c(C(=O)O)cn(C4COC4)c3c2F)C[C@@H]1C (relative stereo) [Compound 93] | 1.56 (≈ 3.97 µM) | 3.13 (≈ 7.96 µM) | 0.78 (≈ 1.98 µM)
3 | CCNCC1CCN(c2c(F)cc3c(=O)c(C(=O)O)cn(C4COC4)c3c2OC)C1 (stereo not drawn) [Compound 79] | 0.1 (≈ 0.238 µM) | 25 (≈ 59.6 µM) | 1.56 (≈ 3.72 µM)
4 | O=C(O)c1cn(C2COC2)c2cc(N3CCC(O)C3)c(F)cc2c1=O (stereo not drawn) [Compound 42] | 1.56 (≈ 4.48 µM) | 3.13 (≈ 8.99 µM) | 0.78 (≈ 2.24 µM)
5 | O=C(O)c1cn(C2COC2)c2nc(N3CCSC3)c(F)cc2c1=O [Compound 73] | 0.78 (≈ 2.22 µM) | 6.25 (≈ 17.8 µM) | 0.78 (≈ 2.22 µM)
6 | CC1CN(c2c(F)cc3c(=O)c(C(=O)O)cn(C4COC4)c3c2F)CCN1 (stereo not drawn) [Compound 13] | 1.56 (≈ 4.11 µM) | 1.56 (≈ 4.11 µM) | 0.2 (≈ 0.527 µM)
7 | CN1CCN(c2c(F)cc3c(=O)c(C(=O)O)cn(C4COC4)c3c2F)CC1 [Compound 11] | 1.56 (≈ 4.11 µM) | 1.56 (≈ 4.11 µM) | 0.2 (≈ 0.527 µM)
8 | O=C(O)c1cn(C2COC2)c2c(F)c(N3CCC(O)CC3)c(F)cc2c1=O [Compound 15] | 0.39 (≈ 1.03 µM) | 6.25 (≈ 16.4 µM) | 0.78 (≈ 2.05 µM)
9 | C[C@H]1CN(c2c(F)cc3c(=O)c(C(=O)O)cn(C4COC4)c3c2F)C[C@H]1N (relative stereo) [Compound 102] | 0.39 (≈ 1.03 µM) | 0.78 (≈ 2.06 µM) | 0.1 (≈ 0.264 µM)
10 | CN(C)C1CCN(c2cc3c(cc2F)c(=O)c(C(=O)O)cn3C2COC2)C1 (stereo not drawn) [Compound 39] | 1.56 (≈ 4.16 µM) | 6.25 (≈ 16.6 µM) | 0.39 (≈ 1.04 µM)
11 | O=C(O)c1cn(C2COC2)c2cc(N3CCNCC3)c(F)cc2c1=O [Compound 36] | 3.13 (≈ 9.01 µM) | 3.13 (≈ 9.01 µM) | 0.39 (≈ 1.12 µM)
12 | CO[C@H]1CN(c2c(F)cc3c(=O)c(C(=O)O)cn(C4COC4)c3c2F)C[C@H]1N (relative stereo) [Compound 89] | 1.56 (≈ 3.95 µM) | 3.13 (≈ 7.92 µM) | 0.78 (≈ 1.97 µM)
13 | CC(=N)N1CCN(c2c(F)c(N)c3c(=O)c(C(=O)O)cn(C4COC4)c3c2F)CC1 [Compound 109] | 0.78 (≈ 1.85 µM) | 3.13 (≈ 7.43 µM) | 0.39 (≈ 0.925 µM)
14 | COc1c(N2CCC(N(C)C)C2)c(F)cc2c(=O)c(C(=O)O)cn(C3COC3)c12 (stereo not drawn) [Compound 77] | 1.56 (≈ 3.85 µM) | 12.5 (≈ 30.8 µM) | 1.56 (≈ 3.85 µM)
15 | O=C(O)c1cn(C2COC2)c2c(F)c(N3CCC(O)C3)c(F)cc2c1=O (stereo not drawn) [Compound 16] | 0.78 (≈ 2.13 µM) | 1.56 (≈ 4.26 µM) | 0.39 (≈ 1.06 µM)
16 | Nc1c(F)c(N2CC(N)C2)c(F)c2c1c(=O)c(C(=O)O)cn2C1COC1 [Compound 49] | 1.56 (≈ 4.26 µM) | 3.13 (≈ 8.54 µM) | 0.78 (≈ 2.13 µM)
17 | CCNCC1CCN(c2c(F)cc3c(=O)c(C(=O)O)cn(C4COC4)c3c2F)C1 (stereo not drawn) [Compound 47] | 0.2 (≈ 0.491 µM) | 6.25 (≈ 15.3 µM) | 0.78 (≈ 1.91 µM)
18 | Nc1c(F)c(N2CCC(O)C2)c(F)c2c1c(=O)c(C(=O)O)cn2C1COC1 (stereo not drawn) [Compound 59] | 0.39 (≈ 1.02 µM) | 3.13 (≈ 8.21 µM) | 0.39 (≈ 1.02 µM)
19 | N=CNC1CCN(c2c(F)c(N)c3c(=O)c(C(=O)O)cn(C4COC4)c3c2F)C1 (stereo not drawn) [Compound 110] | 1.56 (≈ 3.83 µM) | 6.25 (≈ 15.3 µM) | 0.78 (≈ 1.91 µM)
20 | NCC1CCN(c2c(F)c(N)c3c(=O)c(C(=O)O)cn(C4COC4)c3c2F)C1 (stereo not drawn) [Compound 32] | 0.1 (≈ 0.254 µM) | 3.13 (≈ 7.94 µM) | 0.78 (≈ 1.98 µM)
21 | O=C(O)c1cn(C2COC2)c2c(F)c(N3CCSCC3)c(F)cc2c1=O [Compound 7] | 0.39 (≈ 1.02 µM) | 3.13 (≈ 8.19 µM) | 0.78 (≈ 2.04 µM)

Row | SMILES | MIC [1] [µg/mL] | MIC (P. aeruginosa (IFO 3445)) [µg/mL] | MIC [2] [µg/mL]
22 | Nc1c(F)c(N2CCNCC2)c(F)c2c1c(=O)c(C(=O)O)cn2C1COC1 [Compound 55] | 0.78 (≈ 2.05 µM) | 0.78 (≈ 2.05 µM) | 0.39 (≈ 1.03 µM)
23 | CC1CN(c2c(F)cc3c(=O)c(C(=O)O)cn(C4COC4)c3c2F)CC(C)N1 (stereo not drawn) [Compound 14] | 3.13 (≈ 7.96 µM) | 3.13 (≈ 7.96 µM) | 0.2 (≈ 0.508 µM)
24 | Nc1c(F)c(N2CCC(N)C2)c(F)c2c1c(=O)c(C(=O)O)cn2C1COC1 (stereo not drawn) [Compound 31] | 0.39 (≈ 1.03 µM) | 0.78 (≈ 2.05 µM) | 0.2 (≈ 0.526 µM)
25 | NCC1CCN(c2c(F)cc3c(=O)c(C(=O)O)cn(C4COC4)c3c2F)C1 (stereo not drawn) [Compound 20] | 0.2 (≈ 0.527 µM) | 3.13 (≈ 8.25 µM) | 1.56 (≈ 4.11 µM)
26 | CO[C@@H]1CN(c2c(F)cc3c(=O)c(C(=O)O)cn(C4COC4)c3c2F)C[C@H]1N (relative stereo) [Compound 85] | 3.13 (≈ 7.92 µM) | 6.25 (≈ 15.8 µM) | 1.56 (≈ 3.95 µM)
27 | O=C(O)c1cn(C2COC2)c2c(F)c(N3Cc4ccccc4C3)c(F)cc2c1=O [Compound 9] | 0.2 (≈ 0.502 µM) | 3.13 (≈ 7.86 µM) | 0.39 (≈ 0.979 µM)
28 | Nc1c(F)c(N2CCSCC2)c(F)c2c1c(=O)c(C(=O)O)cn2C1COC1 [Compound 28] | 0.78 (≈ 1.96 µM) | 6.25 (≈ 15.7 µM) | 0.78 (≈ 1.96 µM)
29 | CCNC1CCN(c2c(F)c(N)c3c(=O)c(C(=O)O)cn(C4COC4)c3c2F)C1 (stereo not drawn) [Compound 51] | 1.56 (≈ 3.82 µM) | 3.13 (≈ 7.66 µM) | 0.78 (≈ 1.91 µM)
30 | CCNC1CCN(c2c(F)cc3c(=O)c(C(=O)O)cn(C4COC4)c3c2OC)C1 (stereo not drawn) [Compound 82] | 0.78 (≈ 1.92 µM) | 12.5 (≈ 30.8 µM) | 1.56 (≈ 3.85 µM)
31 | Nc1c(F)c(N2CCOCC2)c(F)c2c1c(=O)c(C(=O)O)cn2C1COC1 [Compound 58] | 0.39 (≈ 1.02 µM) | 6.25 (≈ 16.4 µM) | 0.78 (≈ 2.05 µM)
32 | C[C@@H]1CN(c2c(F)cc3c(=O)c(C(=O)O)cn(C4COC4)c3c2F)C[C@H]1N.O=C(O)C(F)(F)F (relative stereo) [Compound 97, 7-(Trans-3-amino-4-methylpyrrolidin-1-yl)-6,8-difluoro-1-(oxetan-3-yl)-1,4-dihydro-4-oxoquinoline-3-carboxylic acid trifluoroacetic acid salt] | 0.78 | 1.56 | 0.39
33 | C[C@@H]1CN(c2c(F)c(N)c3c(=O)c(C(=O)O)cn(C4COC4)c3c2F)C[C@H]1N (relative stereo) [Compound 101] | 0.2 (≈ 0.507 µM) | 0.78 (≈ 1.98 µM) | 0.1 (≈ 0.254 µM)
34 | CN[C@@H]1CN(c2c(F)cc3c(=O)c(C(=O)O)cn(C4COC4)c3c2F)C[C@H]1C (relative stereo) [Compound 91] | 0.78 (≈ 1.98 µM) | 1.56 (≈ 3.97 µM) | 0.2 (≈ 0.508 µM)
35 | COc1c(N2CCC(N)C2)c(F)cc2c(=O)c(C(=O)O)cn(C3COC3)c12 (stereo not drawn) [Compound 76, 7-(3-Aminopyrrolidin-1-yl)-6-fluoro-8-methoxy-1-(oxetan-3-yl)-1,4-dihydro-4-oxoquinoline-3-carboxylic acid] | 0.2 (≈ 0.53 µM) | 1.56 (≈ 4.13 µM) | 0.39 (≈ 1.03 µM)
36 | CNCC1CCN(c2nc3c(cc2F)c(=O)c(C(=O)O)cn3C2COC2)C1 (stereo not drawn) [Compound 70] | 0.39 (≈ 1.04 µM) | 6.25 (≈ 16.6 µM) | 1.56 (≈ 4.14 µM)
37 | CN[C@@H]1CN(c2c(F)c(N)c3c(=O)c(C(=O)O)cn(C4COC4)c3c2F)C[C@@H]1C (relative stereo) [Compound 94] | 0.78 (≈ 1.91 µM) | 1.56 (≈ 3.82 µM) | 0.2 (≈ 0.49 µM)
38 | CCNCC1CCN(c2c(F)c(N)c3c(=O)c(C(=O)O)cn(C4COC4)c3c2F)C1 (stereo not drawn) [Compound 53] | 0.1 (≈ 0.237 µM) | 3.13 (≈ 7.41 µM) | 0.2 (≈ 0.473 µM)
39 | NC1CN(c2c(F)cc3c(=O)c(C(=O)O)cn(C4COC4)c3c2F)C1 [Compound 48] | 1.56 (≈ 4.44 µM) | 3.13 (≈ 8.91 µM) | 0.39 (≈ 1.11 µM)
40 | CN(C)NC1CCN(c2c(F)c(N)c3c(=O)c(C(=O)O)cn(C4COC4)c3c2F)C1 (stereo not drawn) [Compound 96] | 0.39 (≈ 0.921 µM) | 0.78 (≈ 1.84 µM) | 0.1 (≈ 0.236 µM)
41 | C[C@H]1CN(c2c(F)c(N)c3c(=O)c(C(=O)O)cn(C4COC4)c3c2F)C[C@H]1N (relative stereo) [Compound 103] | 0.2 (≈ 0.507 µM) | 0.39 (≈ 0.989 µM) | 0.1 (≈ 0.254 µM)
42 | O=C(O)c1cn(C2COC2)c2c(F)c(N3CCCC3)c(F)cc2c1=O [Compound 4, 6,8-Difluoro-1-(oxetan-3-yl)-7-(pyrrolidin-1-yl)-1,4-dihydro-4-oxoquinoline-3-carboxylic acid] | 0.2 (≈ 0.571 µM) | 1.56 (≈ 4.45 µM) | 0.39 (≈ 1.11 µM)
